In the NIST ThermoML archive (doi:10.1021/je700619q):
Numbers after ± are expanded uncertainties.

What was measured:
[1] = 101 kPa, Liquid
[2] = Boiling temperature at pressure P; settings: 101 kPa; Liquid; Distillation
[3] = xn = mol fraction of the nth substance listed; settings: 101 kPa, Liquid

CCCCCCCCCCO [decan-1-ol]
mass density ([1]; 293 K): 830.1 ± 5.9 kg/m3 | speed of sound ([1]; 293 K): 1408 ± 22 m/s | viscosity ([1]; 293 K): 13.41 ± 0.96 mPa·s | mass density ([1]; 303 K): 822.1 ± 6.6 kg/m3 | speed of sound ([1]; 303 K): 1375.2 ± 22 m/s | viscosity ([1]; 303 K): 9.262 ± 0.7 mPa·s | mass density ([1]; 313 K): 815.7 ± 7.2 kg/m3 | speed of sound ([1]; 313 K): 1344.8 ± 22 m/s | viscosity ([1]; 313 K): 6.515 ± 0.53 mPa·s | Boiling temperature at pressure P [2]: 229.80 ± 0.2 °C

CCCCCCCCCCO [decan-1-ol] + CCNCC
mass density ([3]; 293 K, x2 = 0): 830.1 ± 5.9 kg/m3 | speed of sound ([3]; 293 K, x2 = 0): 1408 ± 22 m/s | viscosity ([3]; 293 K, x2 = 0): 13.41 ± 0.96 mPa·s | mass density ([3]; 303 K, x2 = 0): 822.1 ± 6.6 kg/m3 | speed of sound ([3]; 303 K, x2 = 0): 1375.2 ± 22 m/s | viscosity ([3]; 303 K, x2 = 0): 9.262 ± 0.7 mPa·s | mass density ([3]; 313 K, x2 = 0): 815.7 ± 7.2 kg/m3 | speed of sound ([3]; 313 K, x2 = 0): 1344.8 ± 22 m/s | viscosity ([3]; 313 K, x2 = 0): 6.515 ± 0.53 mPa·s

CCNCC [diethylamine]
mass density ([1]; 293 K): 707.6 ± 4.7 kg/m3 | speed of sound ([1]; 293 K): 1140.8 ± 19 m/s | viscosity ([1]; 293 K): 0.3212 ± 0.04 mPa·s | mass density ([1]; 303 K): 693.6 ± 5.3 kg/m3 | speed of sound ([1]; 303 K): 1089.6 ± 18 m/s | viscosity ([1]; 303 K): 0.275 ± 0.036 mPa·s | mass density ([1]; 313 K): 678.4 ± 5.8 kg/m3 | speed of sound ([1]; 313 K): 1045 ± 18 m/s | viscosity ([1]; 313 K): 0.2577 ± 0.035 mPa·s | Boiling temperature at pressure P [2]: 55.30 ± 0.2 °C

CCNCC [diethylamine] + CCCCCCCCCCO
mass density ([3]; 293 K, x1 = 0.0989): 828.2 ± 5.9 kg/m3 | speed of sound ([3]; 293 K, x1 = 0.0989): 1383.2 ± 22 m/s | viscosity ([3]; 293 K, x1 = 0.0989): 11.04 ± 0.81 mPa·s | mass density ([3]; 293 K, x1 = 0.1963): 824.8 ± 5.8 kg/m3 | speed of sound ([3]; 293 K, x1 = 0.1963): 1352 ± 22 m/s | viscosity ([3]; 293 K, x1 = 0.1963): 8.974 ± 0.68 mPa·s | mass density ([3]; 293 K, x1 = 0.3062): 818.1 ± 5.8 kg/m3 | speed of sound ([3]; 293 K, x1 = 0.3062): 1347.2 ± 22 m/s | viscosity ([3]; 293 K, x1 = 0.3062): 7.105 ± 0.57 mPa·s | mass density ([3]; 293 K, x1 = 0.4062): 814.4 ± 5.7 kg/m3 | speed of sound ([3]; 293 K, x1 = 0.4062): 1333.6 ± 22 m/s | viscosity ([3]; 293 K, x1 = 0.4062): 5.423 ± 0.46 mPa·s | mass density ([3]; 293 K, x1 = 0.4898): 799 ± 5.6 kg/m3 | speed of sound ([3]; 293 K, x1 = 0.4898): 1321.8 ± 21 m/s | viscosity ([3]; 293 K, x1 = 0.4898): 3.948 ± 0.35 mPa·s | mass density ([3]; 293 K, x1 = 0.5973): 795.6 ± 5.5 kg/m3 | speed of sound ([3]; 293 K, x1 = 0.5973): 1310.4 ± 21 m/s | viscosity ([3]; 293 K, x1 = 0.5973): 2.609 ± 0.24 mPa·s | mass density ([3]; 293 K, x1 = 0.6708): 785.4 ± 5.4 kg/m3 | speed of sound ([3]; 293 K, x1 = 0.6708): 1302.4 ± 21 m/s | viscosity ([3]; 293 K, x1 = 0.6708): 1.925 ± 0.18 mPa·s | mass density ([3]; 293 K, x1 = 0.7388): 779.4 ± 5.4 kg/m3 | speed of sound ([3]; 293 K, x1 = 0.7388): 1293.6 ± 21 m/s | viscosity ([3]; 293 K, x1 = 0.7388): 1.43 ± 0.14 mPa·s | mass density ([3]; 293 K, x1 = 0.8012): 770.2 ± 5.3 kg/m3 | speed of sound ([3]; 293 K, x1 = 0.8012): 1288.8 ± 21 m/s | viscosity ([3]; 293 K, x1 = 0.8012): 1.067 ± 0.1 mPa·s | mass density ([3]; 293 K, x1 = 0.8562): 759.5 ± 5.2 kg/m3 | speed of sound ([3]; 293 K, x1 = 0.8562): 1247.2 ± 20 m/s | viscosity ([3]; 293 K, x1 = 0.8562): 0.7924 ± 0.081 mPa·s | mass density ([3]; 293 K, x1 = 0.9031): 741.4 ± 5 kg/m3 | speed of sound ([3]; 293 K, x1 = 0.9031): 1211.2 ± 20 m/s | viscosity ([3]; 293 K, x1 = 0.9031): 0.6052 ± 0.065 mPa·s | mass density ([3]; 293 K, x1 = 0.9601): 720.7 ± 4.8 kg/m3 | speed of sound ([3]; 293 K, x1 = 0.9601): 1173.2 ± 20 m/s | viscosity ([3]; 293 K, x1 = 0.9601): 0.4396 ± 0.051 mPa·s | mass density ([3]; 293 K, x1 = 1): 707.6 ± 4.7 kg/m3 | speed of sound ([3]; 293 K, x1 = 1): 1140.8 ± 19 m/s | viscosity ([3]; 293 K, x1 = 1): 0.3212 ± 0.04 mPa·s | mass density ([3]; 303 K, x1 = 0.0989): 820.7 ± 6.5 kg/m3 | speed of sound ([3]; 303 K, x1 = 0.0989): 1372.4 ± 22 m/s | viscosity ([3]; 303 K, x1 = 0.0989): 7.825 ± 0.61 mPa·s | mass density ([3]; 303 K, x1 = 0.1963): 814.6 ± 6.5 kg/m3 | speed of sound ([3]; 303 K, x1 = 0.1963): 1350 ± 22 m/s | viscosity ([3]; 303 K, x1 = 0.1963): 6.352 ± 0.52 mPa·s | mass density ([3]; 303 K, x1 = 0.3062): 810 ± 6.4 kg/m3 | speed of sound ([3]; 303 K, x1 = 0.3062): 1340 ± 22 m/s | viscosity ([3]; 303 K, x1 = 0.3062): 4.977 ± 0.43 mPa·s | mass density ([3]; 303 K, x1 = 0.4062): 808.4 ± 6.4 kg/m3 | speed of sound ([3]; 303 K, x1 = 0.4062): 1326 ± 21 m/s | viscosity ([3]; 303 K, x1 = 0.4062): 3.524 ± 0.31 mPa·s | mass density ([3]; 303 K, x1 = 0.4898): 794.2 ± 6.3 kg/m3 | speed of sound ([3]; 303 K, x1 = 0.4898): 1314 ± 21 m/s | viscosity ([3]; 303 K, x1 = 0.4898): 2.857 ± 0.26 mPa·s | mass density ([3]; 303 K, x1 = 0.5973): 790.7 ± 6.2 kg/m3 | speed of sound ([3]; 303 K, x1 = 0.5973): 1302.4 ± 21 m/s | viscosity ([3]; 303 K, x1 = 0.5973): 2.015 ± 0.19 mPa·s | mass density ([3]; 303 K, x1 = 0.6708): 779.9 ± 6.1 kg/m3 | speed of sound ([3]; 303 K, x1 = 0.6708): 1295.6 ± 21 m/s | viscosity ([3]; 303 K, x1 = 0.6708): 1.652 ± 0.15 mPa·s | mass density ([3]; 303 K, x1 = 0.7388): 773.3 ± 6.1 kg/m3 | speed of sound ([3]; 303 K, x1 = 0.7388): 1278.8 ± 21 m/s | viscosity ([3]; 303 K, x1 = 0.7388): 1.253 ± 0.12 mPa·s | mass density ([3]; 303 K, x1 = 0.8012): 763.6 ± 6 kg/m3 | speed of sound ([3]; 303 K, x1 = 0.8012): 1266.4 ± 21 m/s | viscosity ([3]; 303 K, x1 = 0.8012): 0.9298 ± 0.093 mPa·s | mass density ([3]; 303 K, x1 = 0.8562): 753.7 ± 5.9 kg/m3 | speed of sound ([3]; 303 K, x1 = 0.8562): 1216.8 ± 20 m/s | viscosity ([3]; 303 K, x1 = 0.8562): 0.689 ± 0.072 mPa·s | mass density ([3]; 303 K, x1 = 0.9031): 737.6 ± 5.7 kg/m3 | speed of sound ([3]; 303 K, x1 = 0.9031): 1176 ± 20 m/s | viscosity ([3]; 303 K, x1 = 0.9031): 0.5352 ± 0.059 mPa·s | mass density ([3]; 303 K, x1 = 0.9601): 709.2 ± 5.4 kg/m3 | speed of sound ([3]; 303 K, x1 = 0.9601): 1130.4 ± 19 m/s | viscosity ([3]; 303 K, x1 = 0.9601): 0.3609 ± 0.044 mPa·s | mass density ([3]; 303 K, x1 = 1): 693.6 ± 5.3 kg/m3 | speed of sound ([3]; 303 K, x1 = 1): 1089.6 ± 18 m/s | viscosity ([3]; 303 K, x1 = 1): 0.275 ± 0.036 mPa·s | mass density ([3]; 313 K, x1 = 0.0989): 811.5 ± 7.2 kg/m3 | speed of sound ([3]; 313 K, x1 = 0.0989): 1332.8 ± 22 m/s | viscosity ([3]; 313 K, x1 = 0.0989): 5.532 ± 0.47 mPa·s | mass density ([3]; 313 K, x1 = 0.1963): 806.3 ± 7.1 kg/m3 | speed of sound ([3]; 313 K, x1 = 0.1963): 1326 ± 21 m/s | viscosity ([3]; 313 K, x1 = 0.1963): 4.522 ± 0.4 mPa·s | mass density ([3]; 313 K, x1 = 0.3062): 803.7 ± 7.1 kg/m3 | speed of sound ([3]; 313 K, x1 = 0.3062): 1316 ± 21 m/s | viscosity ([3]; 313 K, x1 = 0.3062): 3.558 ± 0.32 mPa·s | mass density ([3]; 313 K, x1 = 0.4062): 802.1 ± 7.1 kg/m3 | speed of sound ([3]; 313 K, x1 = 0.4062): 1297.2 ± 21 m/s | viscosity ([3]; 313 K, x1 = 0.4062): 2.793 ± 0.25 mPa·s | mass density ([3]; 313 K, x1 = 0.4898): 788.9 ± 7 kg/m3 | speed of sound ([3]; 313 K, x1 = 0.4898): 1290.8 ± 21 m/s | viscosity ([3]; 313 K, x1 = 0.4898): 2.244 ± 0.21 mPa·s | mass density ([3]; 313 K, x1 = 0.5973): 782.9 ± 6.9 kg/m3 | speed of sound ([3]; 313 K, x1 = 0.5973): 1274.8 ± 21 m/s | viscosity ([3]; 313 K, x1 = 0.5973): 1.631 ± 0.15 mPa·s | mass density ([3]; 313 K, x1 = 0.6708): 773.7 ± 6.8 kg/m3 | speed of sound ([3]; 313 K, x1 = 0.6708): 1258.4 ± 21 m/s | viscosity ([3]; 313 K, x1 = 0.6708): 1.257 ± 0.12 mPa·s | mass density ([3]; 313 K, x1 = 0.7388): 769.7 ± 6.8 kg/m3 | speed of sound ([3]; 313 K, x1 = 0.7388): 1238.4 ± 20 m/s | viscosity ([3]; 313 K, x1 = 0.7388): 0.9795 ± 0.097 mPa·s | mass density ([3]; 313 K, x1 = 0.8012): 755.5 ± 6.6 kg/m3 | speed of sound ([3]; 313 K, x1 = 0.8012): 1212 ± 20 m/s | viscosity ([3]; 313 K, x1 = 0.8012): 0.7247 ± 0.075 mPa·s | mass density ([3]; 313 K, x1 = 0.8562): 745.6 ± 6.5 kg/m3 | speed of sound ([3]; 313 K, x1 = 0.8562): 1164.8 ± 19 m/s | viscosity ([3]; 313 K, x1 = 0.8562): 0.5424 ± 0.059 mPa·s | mass density ([3]; 313 K, x1 = 0.9031): 728.2 ± 6.3 kg/m3 | speed of sound ([3]; 313 K, x1 = 0.9031): 1123.2 ± 19 m/s | viscosity ([3]; 313 K, x1 = 0.9031): 0.4368 ± 0.05 mPa·s | mass density ([3]; 313 K, x1 = 0.9601): 694.8 ± 6 kg/m3 | speed of sound ([3]; 313 K, x1 = 0.9601): 1082 ± 18 m/s | viscosity ([3]; 313 K, x1 = 0.9601): 0.3265 ± 0.041 mPa·s | mass density ([3]; 313 K, x1 = 1): 678.4 ± 5.8 kg/m3 | speed of sound ([3]; 313 K, x1 = 1): 1045 ± 18 m/s | viscosity ([3]; 313 K, x1 = 1): 0.2577 ± 0.035 mPa·s
